Assay results from patent publication US5922691A, “Crystalline maltotetraosyl glucoside, and its production and use” (Kabushiki Kaisha Hayashibara Seibutsu Kagaku Kenkyujo, priority 1994, dated 1999).
Values after ≈ are worked out from the molar mass of the structure shown.

Key:
[1] = Reducing power by the Somogyi-Nelson method, represented by DE; format: physicochemical; details: high-purity lyophilized saccharide preparations
Procedure: These high-purity saccharide preparations were tested for reducing power with the Somogyi-Nelson method and their reducing powers were represented by DE (dextrose equivalent).

[2] = Hygroscopicity when allowed to stand in a room; format: physicochemical; details: for Hygroscopicity: allowed to stand in a room
Procedure: Fifty parts by weight of 98% maltopentaose, a product commercialized by Hayashibara Biochemical Laboratories, Inc., Okayama, Japan, was dissolved in 200 parts by weight of water while heating and the resultant solution was heated to 40° C. and adjusted to pH 7.0, admixed with a non-reducing saccharide-forming enzyme prepared by the method in Experiment A-2 in an amount of 5 units/g maltopentaose, reacted for 24 hours and followed by heating at 100° C. for 20 minutes to inactivate the enzyme. The resultant solution contained about 90% maltotetraosyl glucoside, and the remains are maltopentaose. The solution was adjusted to 0.1N by adding sodium hydroxide, and heated at 100° C. for 2 hours to decompose reducing saccharides. The solution was decolored with activated carbon and desalted with ion-exchange resins (H^+ and OH^- form) to obtain 98% maltotetraosyl glucoside fraction. The fractions were pooled and the solution was concentrated to give a concentration of 60%, placed in a crystallizer and admixed with a crystalline maltotetraosyl glucoside in an amount of 2% as a seed crystal, and the resultant mixture is cooled gradually while stirring for crystallization to form a massecuit. The massecuit thus obtained was separated from molasses to obtain 99.9% hydrous crystalline maltotetraosyl glucoside in the yield against starting material of about 50%.
The anhydrous crystalline maltotetraosyl glucoside can be favorably used as hygroscopic agent, dehydrating agent and chemical raw material, and further utilizable in a variety of compositions including foods, beverages, cosmetics, pharmaceuticals and shaped bodies, similar to hydrous crystalline maltotetraosyl glucoside in Example A-1.

Solubility in water = format: physicochemical; details: in 100 ml of 25° C. water; read-out: Solubility (as anhydride)
Procedure: (8) Solubility (as anhydride)
Up to about 1 g each hydrous or anhydrous crystal was soluble in 100 ml of 25° C. water.

[3] = Acute toxicity in mice upon oral administration; format: in vivo; details: mouse, in vivo, oral administration
Procedure: (§1) Hydrous and anhydrous crystalline maltotetraosyl glucosides prepared by the method in Experiment B-1 were tested for acute toxicity in mice upon oral administration.

mice = assay: Acute toxicity in mice upon oral administration; format: in vivo; details: oral, maximum administrable doses
Procedure: as §1

DE (dextrose equivalent), reducing power [1]	SMILES	Hygroscopicity [2]	other results
0.23	OC[C@H]1O[C@H](O[C@H]2O[C@H](CO)[C@@H](O[C@H]3O[C@H](CO)[C@@H](O[C@H]4O[C@H](CO)[C@@H](O[C@H]5O[C@H](CO)[C@@H](O[C@H]6O[C@H](CO)[C@@H](O[C@H]7O[C@H](CO)[C@@H](O)[C@H](O)[C@H]7O)[C@H](O)[C@H]6O)[C@H](O)[C@H]5O)[C@H](O)[C@H]4O)[C@H](O)[C@H]3O)[C@H](O)[C@H]2O)[C@H](O)[C@@H](O)[C@@H]1O [PV, α-maltopentaosyl trehalose (or α-maltohexaosyl glucoside)]		
	OC[C@H]1O[C@H](O[C@H]2O[C@H](CO)[C@@H](O[C@H]3O[C@H](CO)[C@@H](O[C@H]4O[C@H](CO)[C@@H](O[C@H]5O[C@H](CO)[C@@H](O)[C@H](O)[C@H]5O)[C@H](O)[C@H]4O)[C@H](O)[C@H]3O)[C@H](O)[C@H]2O)[C@H](O)[C@@H](O)[C@@H]1O [Example A-3, maltotetraosyl glucoside]	substantially no hygroscopicity	
	OC[C@H]1O[C@H](O[C@H]2O[C@H](CO)[C@@H](O[C@H]3O[C@H](CO)[C@@H](O[C@H]4O[C@H](CO)[C@@H](O[C@H]5O[C@H](CO)[C@@H](O)[C@H](O)[C@H]5O)[C@H](O)[C@H]4O)[C@H](O)[C@H]3O)[C@H](O)[C@H]2O)[C@H](O)[C@@H](O)[C@@H]1O [Example A-2, maltotetraosyl glucoside]	substantially no hygroscopicity	
	OC[C@H]1O[C@H](O[C@H]2O[C@H](CO)[C@@H](O[C@H]3O[C@H](CO)[C@@H](O[C@H]4O[C@H](CO)[C@@H](O[C@H]5O[C@H](CO)[C@@H](O)[C@H](O)[C@H]5O)[C@H](O)[C@H]4O)[C@H](O)[C@H]3O)[C@H](O)[C@H]2O)[C@H](O)[C@@H](O)[C@@H]1O [hydrous crystal, O-α-D-glucopyranosyl-(1→4)-O-α-D-glucopyranosyl-(1→4)-O-α-D-glucopyranosyl-(1→4)-α-D-glucopyranosyl α-D-glucopyranoside]		solubility (Solubility in water): ~10000 µg/mL (≈ 12.1 mM); LD50 [3]: ≥ 50000 mg/kg; Mortality (mice): no mouse was died
	OC[C@H]1O[C@H](O[C@H]2O[C@H](CO)[C@@H](O[C@H]3O[C@H](CO)[C@@H](O[C@H]4O[C@H](CO)[C@@H](O[C@H]5O[C@H](CO)[C@@H](O)[C@H](O)[C@H]5O)[C@H](O)[C@H]4O)[C@H](O)[C@H]3O)[C@H](O)[C@H]2O)[C@H](O)[C@@H](O)[C@@H]1O [Example A-4, maltotetraosyl glucoside]	exhibited hygroscopicity	Water content after standing in a room ([2]; after conversion into hydrous crystal): about 4%
0.83	OC[C@H]1O[C@H](O[C@H]2O[C@H](CO)[C@@H](O[C@H]3O[C@H](CO)[C@@H](O)[C@H](O)[C@H]3O)[C@H](O)[C@H]2O)[C@H](O)[C@@H](O)[C@@H]1O [PI, α-glucosyl trehalose (or α-maltosyl glucoside)]		
0.27	OC[C@H]1O[C@H](O[C@H]2O[C@H](CO)[C@@H](O[C@H]3O[C@H](CO)[C@@H](O[C@H]4O[C@H](CO)[C@@H](O[C@H]5O[C@H](CO)[C@@H](O[C@H]6O[C@H](CO)[C@@H](O)[C@H](O)[C@H]6O)[C@H](O)[C@H]5O)[C@H](O)[C@H]4O)[C@H](O)[C@H]3O)[C@H](O)[C@H]2O)[C@H](O)[C@@H](O)[C@@H]1O [PIV, α-maltotetraosyl trehalose (or α-maltopentaosyl glucoside)]		
	OC[C@H]1O[C@H](O[C@H]2O[C@H](CO)[C@@H](O[C@H]3O[C@H](CO)[C@@H](O[C@H]4O[C@H](CO)[C@@H](O[C@H]5O[C@H](CO)[C@@H](O)[C@H](O)[C@H]5O)[C@H](O)[C@H]4O)[C@H](O)[C@H]3O)[C@H](O)[C@H]2O)[C@H](O)[C@@H](O)[C@@H]1O [Example A-1, maltotetraosyl glucoside]	no hygroscopicity	
	OC[C@H]1O[C@H](O[C@H]2O[C@H](CO)[C@@H](O[C@H]3O[C@H](CO)[C@@H](O[C@H]4O[C@H](CO)[C@@H](O[C@H]5O[C@H](CO)[C@@H](O)[C@H](O)[C@H]5O)[C@H](O)[C@H]4O)[C@H](O)[C@H]3O)[C@H](O)[C@H]2O)[C@H](O)[C@@H](O)[C@@H]1O [Example A-5, maltotetraosyl glucoside]	substantially no hygroscopicity	
0.35	OC[C@H]1O[C@H](O[C@H]2O[C@H](CO)[C@@H](O[C@H]3O[C@H](CO)[C@@H](O[C@H]4O[C@H](CO)[C@@H](O)[C@H](O)[C@H]4O)[C@H](O)[C@H]3O)[C@H](O)[C@H]2O)[C@H](O)[C@@H](O)[C@@H]1O [PII, α-maltosyl trehalose (or α-maltotriosyl glucoside)]		

SMILES	DE (dextrose equivalent), reducing power [1]	Hygroscopicity [2]	other results
OC[C@H]1O[C@H](O[C@H]2O[C@H](CO)[C@@H](O[C@H]3O[C@H](CO)[C@@H](O[C@H]4O[C@H](CO)[C@@H](O[C@H]5O[C@H](CO)[C@@H](O)[C@H](O)[C@H]5O)[C@H](O)[C@H]4O)[C@H](O)[C@H]3O)[C@H](O)[C@H]2O)[C@H](O)[C@@H](O)[C@@H]1O [PIII, α-maltotriosyl trehalose (or α-maltotetraosyl glucoside)]	0.10		
